Assay results as given in patent US8022029B2, “Fabric softening compositions comprising polymeric materials” (priority 2007, dated 2011).

Assays:
[1] = type: physicochemical
Protocol: (§1) The capsules were then reformulated with a copolymer of polyether and polyurethane-polyurea (commercially available as Lycra) polymeric fiber material. […] The containers were shacked for 16 hours to allow the systems to equilibrate. The polymeric material was then removed, and the esterquat was tested for perfume molecule content (via dosing by HPLC).
(§2) Polystyrene cross-linked with divinyl benzene was explored as the polymeric material. The partition coefficient of perfume molecules between such cross-linked polystyrene coated with an aminoplast shell (commercially available as Serdolit III) and esterquat was evaluated.

[2] = Proportion of perfume extracted from esterquat aggregates to polymeric material fibers (dosing by HPLC); type: physicochemical; settings: 16 hours
Protocol: as §1

[3] = type: physicochemical; remark: listed apart in the source
Protocol: as §2

[4] = Table 4; cited from earlier work
[5] = 1.0 g polymeric material in 100 g softener (3.6% esterquat, 0.38% perfume)
[6] = 3.1 g polymeric material in 100 g softener (3.6% esterquat, 0.38% perfume)
[7] = 5.0 g polymeric material in 100 g softener (3.6% esterquat, 0.38% perfume)

| Partition Coefficient of Copolymer of polyether and polyurethane [1] | proportion of perfume absorbed by the polymeric material [2, 5] | proportion of perfume absorbed by the polymeric material [2, 6] | proportion of perfume absorbed by the polymeric material [2, 7] | Partition Coefficient of Polystyrene Material [3] | Structure (SMILES) | Log P [4] |
| --- | --- | --- | --- | --- | --- | --- |
| 1.0 | 0.24 | 0.45 | 0.57 | 6.7 | C=CCc1ccc(O)c(OC)c1 [Eugenol, eugenol] | – |
| 1.4 | 0.34 | 0.63 | 0.69 | 6.7 | CCCCCCOC(=O)c1ccccc1O [Hexyl Salicylate, hexyl salicylate] | 5.26 |
| – | 0.26 | 0.51 | 0.60 | – | CC(CCO)CCc1ccccc1 (stereo not shown) [Phenyl Hexanol, phenyl hexanol] | – |

The next lines start with the compound.

| Structure (SMILES) | Partition Coefficient of Copolymer of polyether and polyurethane [1] | proportion of perfume absorbed by the polymeric material [2, 5] | proportion of perfume absorbed by the polymeric material [2, 6] | proportion of perfume absorbed by the polymeric material [2, 7] | Partition Coefficient of Polystyrene Material [3] | Log P [4] |
| --- | --- | --- | --- | --- | --- | --- |
| C=CC(C)(O)CCC=C(C)C (stereo not shown) [Linalool, linalool] | – | – | – | – | – | 2.43 |
| CC(C)=CCC/C(C)=C\CO [Nerol, nerol] | – | – | – | – | – | 2.65 |
